In brackets after ≈: the same amount, converted by molar mass.
How the values were obtained:
Aphanomyces = assay: Field emergence trial (Trial FEHCP034 Aphanomyces); format: in vivo, sugar beet; conditions: pellets containing the substance, result in words
Source text: Based on these findings, the efficiency of microthecin was further investigated in a field emergence trial. The trial was sown relatively late giving it a higher chance for presence of the pathogen Aphanomyces in the trial field.
Seeds were pelleted with standard P1 pelleting mass with (1,2) or without (7,8)Thiram.
Inner coating: 0,3gai/U microthecin as a 0,5% solution in water or 14,7gai/U Hymexazol. 60gai/U Imidacloprid. Standard metallic green seed cover film.
The following combinations were included in the trial: R F0 Without fungicides R FT With Thiram (in pellet) R FH With Hymexazol R FM With Microthecin R P1 STD With Thiram (in pellet) + Hymexazol R FTM With Thiram (in pellet) + Microthecin Trial place Bukkehave, DK. (4 reps, 200 seeds/plot) Trial sown 21.05.2002 1. Count 28.05.2002 (speed) 2. Count 29.05.2002 (speed) 3. Count 24.06.2002 (final)

Cercospora = assay: Similar growth tests with other microorganisms (Example 4); format: cell-based
Procedure: (§1) In each case, microthecin was dissolved in water and placed in wells in the periphery. An agar block containing the pathogen was placed in the centre. The pathogens were allowed to grow out on the PDA-agar plates for 3-5 days.

P. fluorescens DS96.578 = assay: as above; format: cell-based
Procedure: as §1

B. megaterium DS98.124 = assay: as above; format: cell-based
Procedure: as §1

P. mendocina DS98.124 = assay: as above; format: cell-based
Procedure: as §1

B. Pumilus DS96.734 = assay: as above; format: cell-based
Procedure: as §1

Aphanomyces cochlioides [1] = assay: Screening for growth inhibition on agar-plates (Example 4); format: cell-based; conditions: very low concentrations; in wells on PDA-agar plates, 3-5 days
Procedure: The effect of microthecin on the plant pathogenic fungi Pythium ultimum, Rhizoctonia solani and Aphanomyces cochlioides in vitro was investigated by screening for growth inhibition of the pathogens on agar-plates (Figures 6, 7, 8).
as §1

Cercospora beticola = assay: Agar plate inhibition zone test (PDA medium); format: cell-based; conditions: judged after 3-4 weeks of growth, read-out: minimum inhibition concentration (mic)
Procedure: (§2) A circular plug (diameter 10 mm) of fresh mycelium was placed at the centre on a petri-dish (diameter 9 cm) containing PDA medium. (PDA= Potato dextrose agar Difco no. 213400). Wells with a diameter of 5 mm were cut along the periphery of the agar plate. In each well were placed 50 µl of a test solution. Alternatively, 20 µl of each test solution were placed directly on the agar along the periphery of the plate. Also, 50µl of each test solution were placed directly on top of the fungal mycelium plug.
(§3) The agar plates were placed at room temperature in daylight, but protected from direct sunlight.
(§4) The reaction (inhibition zones) of the fungi to the test substance was judged as follows: Rhizoctonia solani: after 2-3 days of growth Pythium ultimum: after 1-2 days of growth Aphanomyces cochlioides: after 3-4 days of growth Cercospora beticola after 3-4 weeks of growth

Rhizoctonia solani = assay: Agar plate inhibition zone test (PDA medium); format: cell-based; conditions: judged after 2-3 days of growth, read-out: minimum inhibition concentration (mic)
Procedure: as §2, §3, §4

Pythium ultimum = assay: Agar plate inhibition zone test (PDA medium); format: cell-based; conditions: Globisporangium ultimum; judged after 1-2 days of growth; read-out: minimum inhibition concentration (mic)
Procedure: as §2, §3, §4

Aphanomyces cochlioides [2] = assay: Agar plate inhibition zone test (PDA medium); format: cell-based; conditions: judged after 3-4 days of growth, read-out: minimum inhibition concentration (mic)
Procedure: as §2, §3, §4

sugar beet seeds = assay: Laboratory germination of pelleted sugar beet seeds; format: in vivo; conditions: result in words
[3] = target: T1, pyranosone dehydratase (PD) (Phanerodontia chrysosporium, UniProt P84193); assay: Conversion of AF or glucosone by PD, monitored at 226nm; format: biochemical, Phanerochaete chrysosporium; conditions: for OD226nm: 22°C, 5.5 hours
T1 construct: from tissue; host or cells: Phanerochaete chrysosporium (enzyme purified from the fungus' cell-free extract)
T1 sequence (P84193 8-900 limits assumed): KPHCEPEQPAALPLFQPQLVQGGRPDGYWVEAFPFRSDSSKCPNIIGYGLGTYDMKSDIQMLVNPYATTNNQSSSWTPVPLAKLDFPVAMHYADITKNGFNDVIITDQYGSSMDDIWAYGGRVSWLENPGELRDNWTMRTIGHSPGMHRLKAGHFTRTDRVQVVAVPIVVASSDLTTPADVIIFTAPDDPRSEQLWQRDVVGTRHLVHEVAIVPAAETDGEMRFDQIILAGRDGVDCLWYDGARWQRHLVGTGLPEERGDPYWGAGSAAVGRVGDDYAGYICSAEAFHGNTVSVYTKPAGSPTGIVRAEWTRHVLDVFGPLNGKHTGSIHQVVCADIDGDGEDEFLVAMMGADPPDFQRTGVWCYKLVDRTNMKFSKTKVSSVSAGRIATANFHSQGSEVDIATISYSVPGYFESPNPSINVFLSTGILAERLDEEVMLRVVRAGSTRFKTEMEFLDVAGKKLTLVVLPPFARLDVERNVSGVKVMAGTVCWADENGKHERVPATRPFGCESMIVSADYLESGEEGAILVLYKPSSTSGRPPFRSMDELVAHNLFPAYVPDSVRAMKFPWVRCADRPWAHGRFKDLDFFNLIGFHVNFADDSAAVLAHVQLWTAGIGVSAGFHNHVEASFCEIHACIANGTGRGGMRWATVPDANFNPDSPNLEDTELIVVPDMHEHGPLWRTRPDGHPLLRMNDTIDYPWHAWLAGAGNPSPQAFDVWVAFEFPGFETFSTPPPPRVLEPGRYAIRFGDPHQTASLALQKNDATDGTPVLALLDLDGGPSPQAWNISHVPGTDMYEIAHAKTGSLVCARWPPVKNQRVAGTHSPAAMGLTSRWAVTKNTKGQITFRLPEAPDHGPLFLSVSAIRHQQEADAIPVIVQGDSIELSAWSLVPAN
Procedure: The reaction system consisted of AF or glucosone 1-15µl, 25µl sodium phosphate buffer (6.5. 0.1M), water, 1.4µl PD to a final volume of 200µl. The reaction was performed at 22°C for 5.5 hours. The formation of microthecin from AF and cortalcerone from glucosone were monitorered at 226nm.

[4] = final substrate concentration 13.7 µg/ml reaction mixture
[5] = final substrate concentration 27.4 µg/ml reaction mixture
[6] = final substrate concentration 41.1 µg/ml reaction mixture
[7] = final substrate concentration 68.4 µg/ml reaction mixture
[8] = final substrate concentration 95.8 µg/ml reaction mixture
[9] = final substrate concentration 137 µg/ml reaction mixture
[10] = final substrate concentration 205 µg/ml reaction mixture

Row | SMILES | speed of germination (Aphanomyces) | OD226nm [3, 4] | OD226nm [3, 5] | OD226nm [3, 6] | OD226nm [3, 7] | OD226nm [3, 8] | OD226nm [3, 9] | OD226nm [3, 10] | other results
1 | O=C1C=CCOC1(O)CO (stereo not drawn) [microthecin] | comparable with pellets only containing Thiram | – | – | – | – | – | – | – | final germination (Aphanomyces): high final germination; effect on Cercospora (Cercospora): no effect; effect on growth (P. fluorescens DS96.578): slightly affected; effect on the growth (B. megaterium DS98.124): no effect; effect on growth (P. mendocina DS98.124): slightly affected; effect on the growth (B. Pumilus DS96.734): no effect; growth of Aphanomyces (Aphanomyces cochlioides [1]): able to reduce the growth; MIC (Cercospora beticola): 2400 µg/mL (≈ 16.7 mM); MIC (Rhizoctonia solani): 240 µg/mL (≈ 1.67 mM); MIC (Pythium ultimum): 480 µg/mL (≈ 3.33 mM); MIC (Aphanomyces cochlioides [2]): 1200 µg/mL (≈ 8.33 mM); speed of laboratory germination (4d) (sugar beet seeds; inclusion in the pellet): decreases the speed of laboratory germination
2 | O=CC(=O)[C@@H](O)[C@H](O)[C@H](O)CO [Glucosone, D-arabino-hexos-2-ulose] | – | 0.069 | 0.104 | 0.141 | 0.238 | 0.323 | 0.484 | 0.634 | –
3 | O=C1CO[C@H](CO)[C@@H](O)[C@@H]1O [AF, 1,5-anhydro-D-fructose] | – | 0.308 | 0.534 | 0.76 | 1.246 | 1.764 | 2.43 | 2.943 | Vmax higher with AF than with glucosone ([3]; ratio AF vs glucosone as PD substrate): around 4.7 times
4 | Cc1cc(O)no1 [Hymexazol, reference compound] | relatively slow | – | – | – | – | – | – | – | 4d>15mm germination (sugar beet seeds): low

From patent EP1840211A1, “Pyranosone dehydratase from phanerochaete chrysosporium” (DANISCO A/S, priority 2001, dated 2003)
